What was measured:
Assay in all cases: ScanEDGE kinase panel (DiscoverX)
Assay type in all cases: binding
IKK-beta = molecular target: T1, IKK-beta (Homo sapiens, UniProt O14920); settings: read-out: % of control activity at 71 nM
T1 construct: T7 phage fusion (most kinases) or DNA tag for qPCR (HEK-293-made kinases); purchased DiscoverX; host or cells: E. coli BL21-derived host (T7 phage) or HEK-293
Experimental: (§1) ScanEDGE kinase assays paneling specificity across a panel of 96 representative kinases were performed by DiscoverX (Fremont, CA). For most assays, kinase-tagged T7 phage strains were grown in parallel in 24-well blocks in an E. coli host derived from the BL21 strain. Bacteria were grown to log phase and infected with T7 phage from frozen stock (MOI=0.4) and incubated with shaking at 32° C. until lysis (90-150 minutes). The lysates were centrifuged (6000×g) and filtered (0.2 μm) to remove cell debris. The remaining kinases were produced in HEK-293 cells and subsequently tagged with DNA for qPCR detection. […] The liganded beads were blocked with excess biotin and washing with blocking buffer (SeaBlock (Pierce), 1% BSA, 0.05% Tween 20, 1 mM DTT) to remove unbound ligand and to reduce non-specific phage binding. […] Test compounds were prepared as 40× stocks in 100% DMSO and directly diluted into the assay. All reactions were performed in polypropylene 384 well plates in a final volume of 40 μl. […] The kinase concentration in the eluates was measured by qPCR.

AXL = molecular target: T2, AXL (Homo sapiens, UniProt P30530); settings: read-out: % of control activity at 71 nM
T2 construct: T7 phage fusion (most kinases) or DNA tag for qPCR (HEK-293-made kinases); purchased DiscoverX (Fremont, CA); host or cells: E. coli BL21-derived host (T7 phage) or HEK-293
T2 sequence (P30530 26-894): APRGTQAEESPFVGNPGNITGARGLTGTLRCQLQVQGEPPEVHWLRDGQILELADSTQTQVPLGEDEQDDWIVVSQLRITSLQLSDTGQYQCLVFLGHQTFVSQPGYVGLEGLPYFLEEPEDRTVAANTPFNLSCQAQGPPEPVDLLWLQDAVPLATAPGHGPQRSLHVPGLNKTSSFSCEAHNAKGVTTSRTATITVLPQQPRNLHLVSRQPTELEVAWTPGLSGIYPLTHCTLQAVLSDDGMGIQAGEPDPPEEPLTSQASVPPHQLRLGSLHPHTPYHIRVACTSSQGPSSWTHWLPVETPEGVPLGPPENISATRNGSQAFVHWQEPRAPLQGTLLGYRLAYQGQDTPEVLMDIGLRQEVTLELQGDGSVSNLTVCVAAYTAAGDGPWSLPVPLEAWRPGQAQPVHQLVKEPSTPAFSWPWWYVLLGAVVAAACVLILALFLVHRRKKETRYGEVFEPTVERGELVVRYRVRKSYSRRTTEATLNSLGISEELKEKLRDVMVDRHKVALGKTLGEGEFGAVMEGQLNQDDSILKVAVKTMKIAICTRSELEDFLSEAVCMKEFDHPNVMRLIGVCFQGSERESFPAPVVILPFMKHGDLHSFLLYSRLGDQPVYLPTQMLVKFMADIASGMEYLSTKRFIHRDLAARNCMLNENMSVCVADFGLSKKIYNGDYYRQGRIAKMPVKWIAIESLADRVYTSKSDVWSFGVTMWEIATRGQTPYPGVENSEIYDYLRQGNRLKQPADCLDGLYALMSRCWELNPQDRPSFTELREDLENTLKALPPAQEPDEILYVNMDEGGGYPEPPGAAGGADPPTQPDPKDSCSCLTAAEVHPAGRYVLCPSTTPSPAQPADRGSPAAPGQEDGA
Experimental: as §1

ROCK2 = molecular target: T3, ROCK2 (Homo sapiens, UniProt O75116); settings: read-out: % of control activity at 71 nM
T3 construct: T7 phage fusion (most kinases) or DNA tag after HEK-293 expression; purchased DiscoverX (Fremont, CA), ScanEDGE; host or cells: T7 phage in E. coli BL21-derived host, or HEK-293
Experimental: as §1

EGFR = molecular target: T4, EGFR (Homo sapiens, UniProt P00533); settings: read-out: % of control activity at 71 nM
T4 construct: T7 phage fusion (most kinases) or DNA tag for qPCR (HEK-293-made kinases); purchased DiscoverX (Fremont, CA); host or cells: E. coli BL21-derived host (T7 phage) or HEK-293
Experimental: as §1

p38-alpha = molecular target: T5, p38-alpha (Homo sapiens, UniProt Q16539); settings: read-out: % of control activity at 71 nM
T5 construct: T7 phage fusion (most kinases) or DNA tag for qPCR (kinases made in HEK-293); purchased DiscoverX; host or cells: E. coli BL21-derived host (T7 phage) or HEK-293
T5 sequence (Q16539 whole entry, the tested form may be a part): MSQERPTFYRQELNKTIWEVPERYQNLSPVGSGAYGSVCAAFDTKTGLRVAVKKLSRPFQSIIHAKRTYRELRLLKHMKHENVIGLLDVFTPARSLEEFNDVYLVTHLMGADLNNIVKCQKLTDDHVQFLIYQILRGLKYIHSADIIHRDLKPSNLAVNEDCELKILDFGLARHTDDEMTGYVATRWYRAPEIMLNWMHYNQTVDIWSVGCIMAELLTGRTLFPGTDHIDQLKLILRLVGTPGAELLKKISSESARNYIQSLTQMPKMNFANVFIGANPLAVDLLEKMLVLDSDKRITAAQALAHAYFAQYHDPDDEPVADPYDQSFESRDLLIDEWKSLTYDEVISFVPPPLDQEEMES
Experimental: as §1

SIK (SIK1) = molecular target: T6, SIK (SIK1) (Homo sapiens, UniProt P57059); settings: SIK refers to SIK1, read-out: % of control activity at 71 nM
T6 construct: T7 phage fusion (most kinases) or DNA tag after HEK-293 expression; purchased DiscoverX (Fremont, CA), ScanEDGE; host or cells: T7 phage in E. coli BL21-derived host, or HEK-293
Experimental: as §1

FGFR3 = molecular target: T7, FGFR3 (Homo sapiens, UniProt P22607); settings: read-out: % of control activity at 71 nM
T7 construct: T7 phage fusion (most kinases) or DNA tag for qPCR (HEK-293-made kinases); purchased DiscoverX; host or cells: E. coli BL21-derived host (T7 phage) or HEK-293
Experimental: as §1

ADCK3 = molecular target: T8, ADCK3 (Homo sapiens, UniProt Q8NI60); settings: read-out: % of control activity at 71 nM
T8 construct: T7 phage fusion (most kinases) or DNA tag for qPCR (HEK-293-made kinases); purchased DiscoverX (Fremont, CA); host or cells: E. coli BL21-derived host (T7 phage) or HEK-293
Experimental: as §1

MET = molecular target: T9, MET (Homo sapiens, UniProt P08581); settings: read-out: % of control activity at 71 nM
T9 construct: T7 phage fusion (most kinases) or DNA tag for qPCR (kinases made in HEK-293); purchased DiscoverX; host or cells: E. coli BL21-derived host (T7 phage) or HEK-293
T9 sequence (P08581 25-1390): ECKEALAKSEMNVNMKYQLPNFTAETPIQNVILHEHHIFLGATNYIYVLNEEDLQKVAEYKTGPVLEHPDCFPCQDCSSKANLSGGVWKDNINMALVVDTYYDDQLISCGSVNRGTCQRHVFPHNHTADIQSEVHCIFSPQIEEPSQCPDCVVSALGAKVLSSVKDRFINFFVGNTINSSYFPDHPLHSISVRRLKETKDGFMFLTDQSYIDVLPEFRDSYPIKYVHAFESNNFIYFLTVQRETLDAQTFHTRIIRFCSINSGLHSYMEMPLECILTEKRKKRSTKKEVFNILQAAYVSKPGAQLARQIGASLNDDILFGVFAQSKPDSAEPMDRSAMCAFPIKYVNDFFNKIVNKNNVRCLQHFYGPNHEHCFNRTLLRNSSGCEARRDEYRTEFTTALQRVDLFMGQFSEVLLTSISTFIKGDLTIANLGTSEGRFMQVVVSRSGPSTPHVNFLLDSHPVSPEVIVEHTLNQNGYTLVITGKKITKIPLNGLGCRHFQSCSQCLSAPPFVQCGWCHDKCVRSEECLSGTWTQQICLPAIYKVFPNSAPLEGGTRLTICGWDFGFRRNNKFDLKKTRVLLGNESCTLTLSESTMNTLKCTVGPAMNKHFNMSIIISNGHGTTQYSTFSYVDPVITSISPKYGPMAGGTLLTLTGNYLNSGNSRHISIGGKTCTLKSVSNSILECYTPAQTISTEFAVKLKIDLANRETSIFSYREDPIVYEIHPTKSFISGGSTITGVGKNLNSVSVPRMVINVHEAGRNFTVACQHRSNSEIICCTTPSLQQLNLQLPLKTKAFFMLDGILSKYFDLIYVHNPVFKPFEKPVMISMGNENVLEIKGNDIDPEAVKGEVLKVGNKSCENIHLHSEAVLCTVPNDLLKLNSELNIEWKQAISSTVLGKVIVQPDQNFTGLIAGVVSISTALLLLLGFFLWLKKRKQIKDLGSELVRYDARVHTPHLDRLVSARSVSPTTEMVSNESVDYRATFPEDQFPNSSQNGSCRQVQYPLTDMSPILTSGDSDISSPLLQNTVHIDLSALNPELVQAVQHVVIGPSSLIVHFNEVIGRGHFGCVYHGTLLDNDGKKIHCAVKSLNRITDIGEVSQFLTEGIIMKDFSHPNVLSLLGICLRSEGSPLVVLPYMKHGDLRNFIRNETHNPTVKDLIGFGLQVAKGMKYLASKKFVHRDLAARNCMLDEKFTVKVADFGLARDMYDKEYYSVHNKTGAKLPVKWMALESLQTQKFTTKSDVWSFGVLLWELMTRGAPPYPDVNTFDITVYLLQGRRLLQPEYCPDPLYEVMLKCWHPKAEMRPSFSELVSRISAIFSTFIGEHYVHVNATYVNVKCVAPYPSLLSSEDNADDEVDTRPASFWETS
Experimental: as §1

FAK = molecular target: T10, FAK (Homo sapiens, UniProt Q05397); settings: read-out: % of control activity at 71 nM
T10 construct: T7 phage fusion (most kinases) or DNA tag for qPCR (HEK-293-made kinases); purchased DiscoverX; host or cells: E. coli BL21-derived host (T7 phage) or HEK-293
T10 sequence (Q05397 whole entry, the tested form may be a part): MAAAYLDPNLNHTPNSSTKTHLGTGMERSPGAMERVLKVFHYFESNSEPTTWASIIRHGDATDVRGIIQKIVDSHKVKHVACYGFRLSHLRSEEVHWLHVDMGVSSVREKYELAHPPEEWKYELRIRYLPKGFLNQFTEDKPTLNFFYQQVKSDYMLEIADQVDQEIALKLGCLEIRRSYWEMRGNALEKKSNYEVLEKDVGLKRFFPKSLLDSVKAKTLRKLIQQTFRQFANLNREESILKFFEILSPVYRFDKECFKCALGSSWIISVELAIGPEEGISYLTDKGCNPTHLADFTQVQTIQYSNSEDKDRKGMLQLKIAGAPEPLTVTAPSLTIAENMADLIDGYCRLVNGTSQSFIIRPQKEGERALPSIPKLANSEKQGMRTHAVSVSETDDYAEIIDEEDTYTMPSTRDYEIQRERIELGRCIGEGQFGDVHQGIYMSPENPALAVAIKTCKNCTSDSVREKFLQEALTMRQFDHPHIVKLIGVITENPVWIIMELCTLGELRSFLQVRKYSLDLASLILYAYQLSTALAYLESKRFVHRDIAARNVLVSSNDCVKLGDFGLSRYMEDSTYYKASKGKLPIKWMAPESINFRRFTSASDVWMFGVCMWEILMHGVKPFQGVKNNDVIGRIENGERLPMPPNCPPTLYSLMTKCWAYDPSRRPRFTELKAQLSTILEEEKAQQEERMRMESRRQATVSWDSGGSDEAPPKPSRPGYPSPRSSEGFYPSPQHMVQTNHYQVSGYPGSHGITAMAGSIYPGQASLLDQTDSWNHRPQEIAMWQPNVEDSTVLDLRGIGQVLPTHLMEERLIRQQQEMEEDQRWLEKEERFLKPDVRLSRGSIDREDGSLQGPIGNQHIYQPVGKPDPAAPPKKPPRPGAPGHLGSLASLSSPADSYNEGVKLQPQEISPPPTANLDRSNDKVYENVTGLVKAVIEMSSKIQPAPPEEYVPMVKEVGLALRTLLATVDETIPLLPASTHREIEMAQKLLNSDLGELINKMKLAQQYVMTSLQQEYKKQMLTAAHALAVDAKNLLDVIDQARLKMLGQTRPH
Experimental: as §1

EPHA2 = molecular target: T11, EPHA2 (Homo sapiens, UniProt P29317); settings: read-out: % of control activity at 71 nM
T11 construct: T7 phage fusion (most kinases) or DNA tag for qPCR (HEK-293-made kinases); purchased DiscoverX; host or cells: E. coli BL21-derived host (T7 phage) or HEK-293
Experimental: as §1

CDK2 = molecular target: T12, CDK2 (Homo sapiens, UniProt P24941); settings: read-out: % of control activity at 71 nM
T12 construct: T7 phage fusion (most kinases) or DNA tag for qPCR (HEK-293-made kinases); purchased DiscoverX (Fremont, CA); host or cells: E. coli BL21-derived host (T7 phage) or HEK-293
Experimental: as §1

PAK4 = molecular target: T13, PAK4 (Homo sapiens, UniProt O96013); settings: read-out: % of control activity at 71 nM
T13 construct: T7 phage fusion (most kinases) or DNA tag for qPCR (kinases made in HEK-293); purchased DiscoverX; host or cells: E. coli BL21-derived host (T7 phage) or HEK-293
T13 sequence (O96013 whole entry, the tested form may be a part): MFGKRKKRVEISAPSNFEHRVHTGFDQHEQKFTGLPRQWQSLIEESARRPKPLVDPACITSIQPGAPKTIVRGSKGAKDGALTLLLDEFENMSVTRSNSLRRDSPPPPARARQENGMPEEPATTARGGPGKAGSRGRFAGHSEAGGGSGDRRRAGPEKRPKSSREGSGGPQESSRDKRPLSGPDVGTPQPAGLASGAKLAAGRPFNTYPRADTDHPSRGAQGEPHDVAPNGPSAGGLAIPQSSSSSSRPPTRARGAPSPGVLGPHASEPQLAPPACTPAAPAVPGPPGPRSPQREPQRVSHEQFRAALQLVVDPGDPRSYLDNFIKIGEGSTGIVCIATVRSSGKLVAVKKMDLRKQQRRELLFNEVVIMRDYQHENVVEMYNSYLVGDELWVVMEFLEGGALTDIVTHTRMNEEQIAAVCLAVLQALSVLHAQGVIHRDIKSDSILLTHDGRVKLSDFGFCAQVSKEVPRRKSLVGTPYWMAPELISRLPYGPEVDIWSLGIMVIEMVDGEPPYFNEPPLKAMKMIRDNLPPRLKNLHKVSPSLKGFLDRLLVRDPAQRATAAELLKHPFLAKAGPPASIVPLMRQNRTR
Experimental: as §1

FLT3 = molecular target: T14, FLT3 (Homo sapiens, UniProt P36888); settings: read-out: % of control activity at 71 nM
T14 construct: T7 phage fusion (most kinases) or DNA tag for qPCR (HEK-293-made kinases); purchased DiscoverX; host or cells: E. coli BL21-derived host (T7 phage) or HEK-293
Experimental: as §1

PIM1 = molecular target: T15, PIM1 (Homo sapiens, UniProt P11309); settings: read-out: % of control activity at 71 nM
T15 construct: T7 phage fusion (most kinases) or DNA tag for qPCR (kinases made in HEK-293); purchased DiscoverX; host or cells: E. coli BL21-derived host (T7 phage) or HEK-293
Experimental: as §1

IGF1R = molecular target: T16, IGF1R (Homo sapiens, UniProt P08069); settings: read-out: % of control activity at 71 nM
T16 construct: T7 phage fusion (most kinases) or DNA tag for qPCR (HEK-293-made kinases); purchased DiscoverX; host or cells: E. coli BL21-derived host (T7 phage) or HEK-293
Experimental: as §1

PRKCE = molecular target: T17, PRKCE (Homo sapiens, UniProt Q02156); settings: read-out: % of control activity at 71 nM
T17 construct: T7 phage fusion (most kinases) or DNA tag for qPCR (kinases made in HEK-293); purchased DiscoverX; host or cells: E. coli BL21-derived host (T7 phage) or HEK-293
Experimental: as §1

T1 sequence (O14920 whole entry, the tested form may be a part): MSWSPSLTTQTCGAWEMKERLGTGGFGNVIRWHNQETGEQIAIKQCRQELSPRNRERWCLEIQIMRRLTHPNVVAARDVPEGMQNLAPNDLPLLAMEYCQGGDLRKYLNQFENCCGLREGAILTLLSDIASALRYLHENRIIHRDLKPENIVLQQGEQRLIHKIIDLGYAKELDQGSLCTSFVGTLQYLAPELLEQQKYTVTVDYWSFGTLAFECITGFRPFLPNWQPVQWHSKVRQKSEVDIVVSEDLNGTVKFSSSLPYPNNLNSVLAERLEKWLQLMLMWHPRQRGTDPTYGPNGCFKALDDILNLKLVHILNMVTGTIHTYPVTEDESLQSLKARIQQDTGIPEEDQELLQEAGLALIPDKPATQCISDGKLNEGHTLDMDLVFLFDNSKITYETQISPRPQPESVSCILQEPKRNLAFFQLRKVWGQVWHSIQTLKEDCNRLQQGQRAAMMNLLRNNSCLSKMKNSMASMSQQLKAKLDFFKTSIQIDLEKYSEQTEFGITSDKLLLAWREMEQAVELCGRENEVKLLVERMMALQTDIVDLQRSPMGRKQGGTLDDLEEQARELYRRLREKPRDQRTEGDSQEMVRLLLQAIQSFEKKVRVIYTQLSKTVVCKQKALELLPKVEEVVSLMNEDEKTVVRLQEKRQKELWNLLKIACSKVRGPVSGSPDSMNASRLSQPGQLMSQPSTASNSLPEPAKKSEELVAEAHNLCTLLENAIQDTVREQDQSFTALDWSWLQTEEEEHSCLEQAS

remaining binding at 0.071 µM (IKK-beta): 84% | remaining binding at 0.071 µM (AXL): 68% | remaining binding at 0.071 µM (ROCK2): 70% | remaining binding at 0.071 µM (EGFR): 5.9% | remaining binding at 0.071 µM (p38-alpha): 0.95% | remaining binding at 0.071 µM (SIK (SIK1)): 0.6% | remaining binding at 0.071 µM (FGFR3): 24% | remaining binding at 0.071 µM (ADCK3): 93% | remaining binding at 0.071 µM (MET): 92% | remaining binding at 0.071 µM (FAK): 90% | remaining binding at 0.071 µM (EPHA2): 7.1% | remaining binding at 0.071 µM (CDK2): 99% | remaining binding at 0.071 µM (PAK4): 88% | remaining binding at 0.071 µM (FLT3): 20% | remaining binding at 0.071 µM (PIM1): 89% | remaining binding at 0.071 µM (IGF1R): 100% | remaining binding at 0.071 µM (PRKCE): 92%
SMILES: COc1ccc(N2C(=O)N(c3c(C)cccc3C)Cc3cnc(Nc4ccc(C5CCN(C)CC5)c(OC)c4)nc32)c(OC)c1 [YKL-05-093]

— patent publication US12121521B2, “Uses of salt-inducible kinase (SIK) inhibitors for treating osteoporosis” (The General Hospital Corporation, priority 2016, dated 2024)
